# The source made the active and inactive calls.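 Rule for the calls: active = compound whose fitted luminescence drop, meaning cytotoxicity, reaches half effect at most twice its top valid tested dose; inconclusive = flat curve with a moderate drop, or an unreliable fit; inactive = rise instead of drop, flat response, or weaker potency.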
# Test: NIH/3T3 fibroblast cytotoxicity, dose response, cytotoxicity control for T. cruzi growth inhibitor project, cell-based, cherry-pick samples, set 2 (AID 651817)
# Details: NIH/3T3 viability, ATP luminescence (CellTiter-Glo), 90 h; at 3.8 µM (top of the series)
row,Structure (SMILES),"activity change, negative = cytotoxicity"
1,Cc1ccc(S(=O)(=O)Nc2ccc3c(c2)CC(=O)N([C@H](C)CO)C[C@@H](C)[C@H](CN(C)Cc2ccc(Cl)c(Cl)c2)O3)cc1,33.6% (inactive)

# Same assay, conditions: NIH/3T3 viability, ATP luminescence (CellTiter-Glo), 90 h; at 4.2 µM (top of the series)
row,Structure (SMILES),"activity change, negative = cytotoxicity"
1,C[C@@H]1CN([C@H](C)CO)C(=O)c2cccc(NC(=O)Nc3ccc(C(F)(F)F)cc3)c2O[C@@H]1CN(C)Cc1ccc(Cl)c(Cl)c1,37.5% (inactive)

# Same assay, conditions: NIH/3T3 viability, ATP luminescence (CellTiter-Glo), 90 h; at 19.5 µM (top of the series)
row,Structure (SMILES),"activity change, negative = cytotoxicity"
1,C[C@@H]1CN([C@H](C)CO)C(=O)c2cccc(NC(=O)c3ccncc3)c2O[C@@H]1CN(C)Cc1ccc2c(c1)OCO2,-25.6% (inactive)
2,Cc1ccc(S(=O)(=O)Nc2ccc3c(c2)CC(=O)N([C@H](C)CO)C[C@H](C)[C@@H](CN(C)S(=O)(=O)c2ccc(Cl)cc2)O3)cc1,-14.6% (inactive)
3,C[C@H](CO)N1C[C@H](C)[C@H](CN(C)Cc2ccc3c(c2)OCO3)Oc2c(NC(=O)c3ccncc3)cccc2C1=O,-7.03% (inactive)
4,C[C@H](CO)N1C[C@H](C)[C@@H](CN(C)S(=O)(=O)c2ccc(Cl)cc2)Oc2ccc(NS(=O)(=O)c3ccccc3)cc2CC1=O,-20.3% (inactive)
5,C[C@@H]1CN([C@H](C)CO)C(=O)c2cccc(NC(=O)c3ccncc3)c2O[C@@H]1CN(C)Cc1ccc(Cl)c(Cl)c1,-9.65% (inactive)
6,Cc1ccc(S(=O)(=O)N(C)C[C@H]2Oc3c(NC(=O)c4nc5ccccc5s4)cccc3C(=O)N([C@H](C)CO)C[C@@H]2C)cc1,-6.91% (inactive)
7,C[C@@H]1CN([C@H](C)CO)C(=O)Cc2cc(NS(=O)(=O)c3ccc(F)cc3)ccc2O[C@H]1CN(C)Cc1ccc(Cl)c(Cl)c1,-17.9% (inactive)
8,C[C@@H]1CN([C@H](C)CO)C(=O)c2cccc(NC(=O)c3ccncc3)c2O[C@@H]1CN(C)CC1CCCCC1,29% (inactive)
9,C[C@H](CO)N1C[C@H](C)[C@H](CN(C)Cc2ccc(-c3ccccc3)cc2)Oc2c(NC(=O)c3ccncc3)cccc2C1=O,4.37% (inactive)
10,Cc1ccc(S(=O)(=O)Nc2ccc3c(c2)CC(=O)N([C@H](C)CO)C[C@@H](C)[C@H](CN(C)Cc2ccc4c(c2)OCO4)O3)cc1,11% (inactive)
11,COc1ccc(CN(C)C[C@H]2Oc3c(NC(=O)Nc4ccc(C(F)(F)F)cc4)cccc3C(=O)N([C@H](C)CO)C[C@@H]2C)cc1,-1.02% (inactive)
12,Cc1ccc(S(=O)(=O)N(C)C[C@H]2Oc3ccc(NS(=O)(=O)c4ccccc4)cc3CC(=O)N([C@H](C)CO)C[C@H]2C)cc1,-0.01% (inactive)
13,Cc1ccc(S(=O)(=O)N(C)C[C@@H]2Oc3c(NC(=O)c4nc5ccccc5s4)cccc3C(=O)N([C@@H](C)CO)C[C@H]2C)cc1,-13.6% (inactive)
14,C[C@@H]1CN([C@H](C)CO)C(=O)c2cccc(NC(=O)c3ccncc3)c2O[C@@H]1CN(C)Cc1ccc(-c2ccccc2)cc1,6.2% (inactive)
15,Cc1ccc(S(=O)(=O)N(C)C[C@H]2Oc3c(NC(=O)c4nc5ccccc5s4)cccc3C(=O)N([C@@H](C)CO)C[C@@H]2C)cc1,-1.47% (inactive)
16,C[C@@H]1CN([C@@H](C)CO)C(=O)c2cccc(NC(=O)c3nc4ccccc4s3)c2O[C@H]1CN(C)S(=O)(=O)c1ccc(Cl)cc1,-6.73% (inactive)
17,Cc1ccc(S(=O)(=O)Nc2ccc3c(c2)CC(=O)N([C@H](C)CO)C[C@@H](C)[C@H](CN(C)S(=O)(=O)c2ccc(Cl)cc2)O3)cc1,-23.3% (inactive)
18,Cc1ccc(S(=O)(=O)Nc2ccc3c(c2)CC(=O)N([C@@H](C)CO)C[C@H](C)[C@H](CN(C)Cc2ccccc2)O3)cc1,-4.35% (inactive)
19,C[C@H](CO)N1C[C@H](C)[C@H](CN(C)Cc2ccccc2)Oc2c(NC(=O)c3ccncc3)cccc2C1=O,6.02% (inactive)
20,C[C@@H]1CN([C@@H](C)CO)C(=O)c2cccc(NC(=O)Nc3ccc(C(F)(F)F)cc3)c2O[C@H]1CN(C)Cc1ccc(Cl)c(Cl)c1,-34.5% (inactive)
21,Cc1ccc(S(=O)(=O)N(C)C[C@H]2Oc3ccc(NS(=O)(=O)c4ccccc4)cc3CC(=O)N([C@@H](C)CO)C[C@@H]2C)cc1,26% (inactive)
22,Cc1noc(C)c1NC(=O)Nc1cccc2c1O[C@@H](CN(C)S(C)(=O)=O)[C@H](C)CN([C@@H](C)CO)C2=O,-28% (inactive)

row,Structure (SMILES),"activity change, negative = cytotoxicity"
1,C[C@H](CO)N1C[C@H](C)[C@H](CN(C)Cc2ccc3c(c2)OCO3)Oc2c(NC(=O)c3nc4ccccc4s3)cccc2C1=O,-1.97% (inactive)
2,Cc1ccc(S(=O)(=O)Nc2ccc3c(c2)CC(=O)N([C@H](C)CO)C[C@@H](C)[C@@H](CN(C)Cc2ccccc2)O3)cc1,-12.9% (inactive)
3,COc1ccc(CN(C)C[C@@H]2Oc3c(NC(=O)c4ccncc4)cccc3C(=O)N([C@@H](C)CO)C[C@H]2C)cc1,-18.8% (inactive)
4,C[C@H](CO)N1C[C@H](C)[C@@H](CN(C)Cc2ccc3c(c2)OCO3)Oc2c(NC(=O)c3ccncc3)cccc2C1=O,-18.8% (inactive)
5,C[C@H]1CN([C@@H](C)CO)C(=O)c2cccc(NC(=O)c3ccncc3)c2O[C@H]1CN(C)CC1CCCCC1,36.4% (inactive)
6,Cc1ccc(S(=O)(=O)N(C)C[C@@H]2Oc3ccc(NS(=O)(=O)c4ccccc4)cc3CC(=O)N([C@@H](C)CO)C[C@@H]2C)cc1,9.31% (inactive)
7,C[C@@H]1CN([C@H](C)CO)C(=O)c2cccc(NC(=O)c3nc4ccccc4s3)c2O[C@H]1CN(C)S(=O)(=O)c1ccc(Cl)cc1,-10.1% (inactive)
8,C[C@@H]1CN([C@@H](C)CO)C(=O)c2cccc(NC(=O)c3nc4ccccc4s3)c2O[C@@H]1CN(C)S(=O)(=O)c1ccccc1,-7.14% (inactive)
9,C[C@H](CO)N1C[C@H](C)[C@@H](CN(C)S(=O)(=O)c2ccc(F)cc2)Oc2c(NC(=O)NC3CCCCC3)cccc2C1=O,5.78% (inactive)
10,C[C@@H]1CN([C@H](C)CO)C(=O)c2cccc(NC(=O)c3ccncc3)c2O[C@H]1CN(C)CC1CCCCC1,-12.3% (inactive)
11,Cc1ccc(S(=O)(=O)N(C)C[C@@H]2Oc3ccc(NS(=O)(=O)c4ccccc4)cc3CC(=O)N([C@@H](C)CO)C[C@H]2C)cc1,-8.95% (inactive)
12,Cc1ccc(S(=O)(=O)N(C)C[C@H]2Oc3ccc(NS(=O)(=O)c4ccc(Cl)cc4)cc3CC(=O)N([C@H](C)CO)C[C@@H]2C)cc1,3.37% (inactive)
13,C[C@@H]1CN([C@H](C)CO)C(=O)c2cccc(NC(=O)c3ccncc3)c2O[C@H]1CN(C)Cc1ccccc1,9% (inactive)
14,COc1ccc(CN(C)C[C@H]2Oc3c(NC(=O)Nc4ccc(C(F)(F)F)cc4)cccc3C(=O)N([C@@H](C)CO)C[C@H]2C)cc1,-11.1% (inactive)
15,COc1ccc(CN(C)C[C@H]2Oc3c(NC(=O)c4ccncc4)cccc3C(=O)N([C@@H](C)CO)C[C@@H]2C)cc1,5.41% (inactive)
16,Cc1noc(C)c1NC(=O)Nc1cccc2c1O[C@@H](CN(C)S(C)(=O)=O)[C@@H](C)CN([C@@H](C)CO)C2=O,-35% (inactive)
17,C[C@H](CO)N1C[C@H](C)[C@@H](CN(C)Cc2ccc(Cl)c(Cl)c2)Oc2c(NC(=O)c3ccncc3)cccc2C1=O,-21.9% (inactive)
18,C[C@H](CO)N1C[C@H](C)[C@H](CN(C)CC2CCCCC2)Oc2c(NC(=O)c3ccncc3)cccc2C1=O,2.09% (inactive)
19,COc1ccc(S(=O)(=O)Nc2ccc3c(c2)CC(=O)N([C@H](C)CO)C[C@@H](C)[C@H](CN(C)Cc2ccc4c(c2)OCO4)O3)cc1,4.02% (inactive)
20,C[C@@H]1CN([C@@H](C)CO)C(=O)c2cccc(NC(=O)c3nc4ccccc4s3)c2O[C@H]1CN(C)S(=O)(=O)c1ccccc1,-9.49% (inactive)
21,C[C@@H]1CN([C@H](C)CO)C(=O)c2cccc(NC(=O)c3ccncc3)c2O[C@@H]1CN(C)Cc1ccccc1,4.84% (inactive)
22,C[C@@H]1CN([C@@H](C)CO)C(=O)Cc2cc(NS(=O)(=O)c3ccc(Cl)cc3)ccc2O[C@@H]1CN(C)S(=O)(=O)c1ccc(Cl)cc1,-14.1% (inactive)

# Same assay, conditions: NIH/3T3 viability, ATP luminescence (CellTiter-Glo), 90 h; at 21 µM (top of the series)
row,Structure (SMILES),"activity change, negative = cytotoxicity"
1,Cc1ccc(S(=O)(=O)N(C)C[C@@H]2Oc3ccc(NS(=O)(=O)c4ccc(Cl)cc4)cc3CC(=O)N([C@@H](C)CO)C[C@@H]2C)cc1,11.5% (inactive)
2,Cc1ccc(S(=O)(=O)Nc2ccc3c(c2)CC(=O)N([C@H](C)CO)C[C@@H](C)[C@H](CN(C)Cc2ccccc2)O3)cc1,9.12% (inactive)
3,C[C@@H]1CN([C@@H](C)CO)C(=O)c2cccc(NC(=O)c3ccncc3)c2O[C@@H]1CN(C)Cc1ccc(Oc2ccccc2)cc1,31.2% (inactive)
4,Cc1ccc(S(=O)(=O)Nc2ccc3c(c2)CC(=O)N([C@@H](C)CO)C[C@H](C)[C@@H](CN(C)S(=O)(=O)c2ccc(Cl)cc2)O3)cc1,11.7% (inactive)
5,Cc1ccc(S(=O)(=O)N(C)C[C@H]2Oc3ccc(NS(=O)(=O)c4ccc(Cl)cc4)cc3CC(=O)N([C@@H](C)CO)C[C@H]2C)cc1,-13.4% (inactive)
6,Cc1ccc(S(=O)(=O)Nc2ccc3c(c2)CC(=O)N([C@H](C)CO)C[C@H](C)[C@H](CN(C)S(=O)(=O)c2ccc(Cl)cc2)O3)cc1,-27.3% (inactive)
7,C[C@@H]1CN([C@@H](C)CO)C(=O)c2cccc(NC(=O)c3ccncc3)c2O[C@@H]1CN(C)Cc1ccc2c(c1)OCO2,-12.5% (inactive)
8,Cc1ccc(S(=O)(=O)N(C)C[C@@H]2Oc3c(NC(=O)c4nc5ccccc5s4)cccc3C(=O)N([C@H](C)CO)C[C@H]2C)cc1,44.2% (inactive)
9,Cc1ccc(S(=O)(=O)Nc2ccc3c(c2)CC(=O)N([C@@H](C)CO)C[C@@H](C)[C@@H](CN(C)Cc2ccc(Cl)c(Cl)c2)O3)cc1,-67.6% (inactive)

# Source: PubChem BioAssay AID651817 (Broad Institute, 2012)
